Like-named read-outs stand apart in the source and are kept apart here. Values belong to the compound of their own block, whether it stands above or below them.
Legend:
S6RP(S235/S236) = experiment: Phospho-S6RP(S235/S236) in PC3 cell lysates, MSD; type: cell-based, human; settings: Homo sapiens, PC-3, 1 h, PC3 cells, 1 hour; two values; read-out: IC50 for inhibition of S6RP(S235/S236) phosphorylation
Text: (§1) The direct substrate for TORC1 was 4E-BP 1(T46) and indirect downstream substrate was S6RP(S235/S236). The direct substrate for TORC2 was Akt(S473) and indirect downstream substrates measured were GSK3β(S9) and PRAS40(T246). Additionally, the phosphorylation status of Akt(T308), a phosphorylation site for PDK1 was monitored.
(§2) MSD® biomarker detection assays provide a rapid and convenient method for measuring the total and phosphorylated levels of protein targets within a single small volume sample. These assays are available in both single-plex and multiplex formats. In a single-plex assay, an antibody for a specific protein target is coated on one electrode (or spot) per well. […] MSD Read Buffer that provides the appropriate chemical environment for ECL is added and the plate is read using an MSD SECTOR™ Imager. […] The instrument measures intensity of the emitted light to afford a quantitative measure of the amount of phosphorylated Akt or S6RP present in the sample. […]
(§3) The assay plate was incubated with 150 μL of MSD Blocker A Solution for 1 hour with shaking at room temperature. […] Then 150 μL of 1×MSD Read Buffer T was added to each well. The plate was read on the SECTOR Imager plate reader. The Excel data was transferred to Activity Base and IC50 values were calculated.
(§4) All data was analyzed using XLfit from IDBS. […]

Akt(S473) = experiment: Phospho-Akt(S473) in PC3 cell lysates, MSD; type: cell-based, human; settings: PC3 cells, data not shown
Text: as §1, §2, §3, §4

[1] = Body weight in Compound 1 PC3 xenograft efficacy studies; type: in vivo, SCID mice; settings: rapamycin 4 mg/kg, 3 weeks, data not shown
Procedure: The BID dose groups were dosed with a 10-hour separation between the morning and evening doses. […] At the end of each study, plasma and/or tumor samples were collected.
Initial body weights were recorded prior to the initiation of treatment using a digital scale. The percent body weight change during the course of the study was calculated using initial body weight measurements. Body weights of each animal were measured twice a week at the same time that tumor measurements were taken. Body weights were measured more frequently if significant decreases were noted during the course of the study.

4E-BP1(T46) = experiment: Phospho-4E-BP1(T46) in PC3 cell lysates, Luminex multiplex; type: cell-based, human; settings: PC3 cells, up to concentrations of 10 μM
Text: as §1
The multiplex Luminex assay format differs from conventional enzyme-linked immunosorbent assay (ELISA) in that the multiplex capture antibody is attached to a polystyrene bead whereas the ELISA capture antibody is attached to the microplate well. The use of the suspension bead-based technology enables the multiplexing capabilities of the Luminex assays. The xMAP® technology uses 5.6 micron polystyrene microspheres, which are internally dyed with red and infrared fluorophores of differing intensities. Each bead is given a unique number, or bead region, allowing differentiation of one bead from another. Beads covalently bound to different specific antibodies can be mixed in the same assay, utilizing a 96-well microplate format. At the completion of the sandwich immunoassay, beads can be read, using the Luminex 100™ or Luminex 200 detection system, in single-file by dual lasers for classification and quantification of each analyte. […]

Oral bioavailability = experiment: Oral bioavailability; parameters: species or system rodent; settings: in vivo
[2] = test system: PC3 prostate cancer cell lines; experiment: PC3 cellular activity: proliferation; settings: Homo sapiens, PC-3, read-out: PC3 Cellular Activity Prolif IC50
pS6 [3] = experiment: PC3 cellular activity: pS6 (mTORC1) inhibition; type: cell-based; settings: Homo sapiens, PC-3; average of 2 or more experiments
pAktS473 [4] = experiment: PC3 cellular activity: pAktS473 (mTORC2) inhibition; type: cell-based; settings: Homo sapiens, PC-3; average of 2 or more experiments; read-out: PC3 Cellular Activity pAkt IC50
mTOR = mTOR (Homo sapiens, UniProt P42345); experiment: mTOR inhibition (Table 3); type: biochemical; settings: average of 2 or more experiments
pAktS473 [5] = experiment: Tumor pAktS473 after single dose of Compound 6 (PK/PD); type: in vivo, mice; settings: Mus musculus, 30 mg/kg single dose
pS6 [6] = experiment: Tumor pS6 after single dose of Compound 6 (PK/PD); type: in vivo, mice; settings: for inhibition at 30 mg/kg: Mus musculus, 30 mg/kg single dose
PC3 xenograft = type: in vivo
FMS = FMS (Homo sapiens, UniProt P07333); experiment: FMS concentration-response curve; type: biochemical
Chain of FMS (P07333 20-972, species assumed): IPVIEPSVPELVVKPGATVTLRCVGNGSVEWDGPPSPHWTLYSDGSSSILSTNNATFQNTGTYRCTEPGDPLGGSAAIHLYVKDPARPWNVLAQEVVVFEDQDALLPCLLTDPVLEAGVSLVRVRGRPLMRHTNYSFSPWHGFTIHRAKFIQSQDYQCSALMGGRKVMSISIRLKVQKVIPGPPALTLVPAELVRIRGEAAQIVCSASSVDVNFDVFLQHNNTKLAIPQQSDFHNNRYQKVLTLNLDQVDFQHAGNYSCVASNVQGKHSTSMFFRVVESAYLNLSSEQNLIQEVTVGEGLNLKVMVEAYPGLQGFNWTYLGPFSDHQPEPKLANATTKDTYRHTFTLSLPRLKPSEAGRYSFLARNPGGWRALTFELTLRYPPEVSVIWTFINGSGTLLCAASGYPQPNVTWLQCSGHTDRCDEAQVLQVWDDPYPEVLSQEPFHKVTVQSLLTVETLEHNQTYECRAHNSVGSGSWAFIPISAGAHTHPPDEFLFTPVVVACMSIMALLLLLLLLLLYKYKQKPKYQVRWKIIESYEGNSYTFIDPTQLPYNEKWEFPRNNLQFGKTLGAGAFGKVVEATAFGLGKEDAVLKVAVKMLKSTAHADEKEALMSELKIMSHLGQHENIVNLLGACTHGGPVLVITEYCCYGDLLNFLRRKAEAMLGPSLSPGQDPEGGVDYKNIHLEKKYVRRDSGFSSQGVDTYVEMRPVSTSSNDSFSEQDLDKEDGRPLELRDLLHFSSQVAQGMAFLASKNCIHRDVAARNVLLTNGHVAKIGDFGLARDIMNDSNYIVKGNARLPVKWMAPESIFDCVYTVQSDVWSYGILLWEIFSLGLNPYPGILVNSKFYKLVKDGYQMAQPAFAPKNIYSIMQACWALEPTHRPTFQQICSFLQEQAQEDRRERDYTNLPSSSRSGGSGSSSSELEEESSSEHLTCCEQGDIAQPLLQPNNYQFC

249 kinases = experiment: Single point kinase selectivity assay against 249 kinases; type: biochemical; settings: 10 μM
[7] = Compound 6 plasma and tumor levels (PK/PD); type: in vivo, mice; settings: 30 mg/kg single dose, by 24 h

- IC50 (S6RP(S235/S236)): 0.019 nM
SMILES: CO[C@H]1C[C@@H]2CC[C@@H](C)[C@@](O)(O2)C(=O)C(=O)N2CCCC[C@H]2C(=O)O[C@H]([C@H](C)C[C@@H]2CC[C@@H](O)[C@H](OC)C2)CC(=O)[C@H](C)/C=C(\C)[C@@H](O)[C@@H](OC)C(=O)[C@H](C)C[C@H](C)/C=C/C=C/C=C/1C [rapamycin, reference compound]
- inhibition of Akt(S473) phosphorylation (Akt(S473)): did not inhibit
- change in body weight [1]: No significant change
- inhibition of 4E-BP1(T46) phosphorylation (4E-BP1(T46)): not inhibited

- IC50 (pS6 [3]): 2410 nM
- IC50 (pAktS473 [4]): 2550 nM
- IC50 (mTOR): 176 nM
- IC50 [2]: 4180 nM
SMILES: CC(C)(O)c1ccc(-c2cnc3[nH]c(=O)n(CC4CCOCC4)c3n2)cn1 [Compound 5]

The remaining lines, values behind:

SMILES: O=C1CN(CCC2CCOCC2)c2nc(-c3ccc(-c4nc[nH]n4)cc3)cnc2N1 [Compound 4]
- oral bioavailability (Oral bioavailability): poor oral bioavailability
- IC50 [2]: 148 nM

SMILES: O=c1[nH]c2ncc(-c3ccc(-c4nc[nH]n4)cc3)nc2n1CCC1CCOCC1 [Compound 3]
- IC50 (pS6 [3]): 40 nM
- IC50 (pAktS473 [4]): 18 nM
- IC50 (mTOR): 2 nM
- oral bioavailability (Oral bioavailability): poor oral bioavailability
- IC50 [2]: 224 nM

SMILES: CC(C)(O)c1ccc(-c2cnc3c(n2)N(CC2CCOCC2)CC(=O)N3)cn1 [Compound 6]
- inhibition at 30 mg/kg (pAktS473 [5]; 2-8 h): 53 to 77%
- inhibition at 30 mg/kg (pAktS473 [5]; 24 h): 28%
- biomarker (pS6, pAktS473) inhibition in tumor (pS6 [6]; 100 mg/kg single dose, through 24 hours): full biomarker inhibition
- inhibition at 30 mg/kg (pS6 [6]; 2-8 h): 87 to 93%
- inhibition at 30 mg/kg (pS6 [6]; 24 h): 43%
- tumor volume inhibition compared to vehicle control (PC3 xenograft; 10 mg/kg oral once daily): 18%
- tumor volume inhibition compared to vehicle control (PC3 xenograft; 25 mg/kg oral once daily): 63%
- tumor volume inhibition compared to vehicle control (PC3 xenograft; 50 mg/kg oral once daily): 84%
- tolerability (PC3 xenograft; all dose levels and schedules, 3 weeks of treatment): well tolerated
- PC3 tumor growth (PC3 xenograft; oral, once or twice daily or every second day): significantly inhibited PC3 tumor growth
- IC50 (FMS): 2700 nM
- kinases other than mTOR inhibited >80% (249 kinases): only one kinase other than mTOR was inhibited >80%
- plasma and tumor level of compound [7]: almost completely cleared
- oral bioavailability (Oral bioavailability): excellent oral bioavailablity
